What was measured:
[1] = Toxicokinetics, 14-day intranasal study in dogs (Study 62959); format: in vivo; conditions: both sexes, Beagle, dog, plasma, inhaled or intranasal, dogs, 14-day intranasal study
Method: Assessments of mortality, clinical signs, olfactory reflex, body weights, food consumption, ophthalmology, and electrocardiograms were performed. In addition, clinical pathology assessments (hematology, coagulation, clinical chemistry and urinalysis) were evaluated once pretreatment and at termination. Blood samples were collected from the jugular vein of all animals on Days 1 and 14, at up to 8 time points relative to treatment, for analysis of test item concentration in plasma and the subsequent calculation of toxicokinetic parameters. Following dosing, the Main animals were euthanized and subjected to a complete necropsy examination on Day 15. […] All Main and Recovery study animals underwent complete necropsy examinations, selected tissues/organs were retained, and microscopic evaluations of a standard set of tissues were performed.
For toxicokinetics, a series of 8 blood samples were collected from the jugular vein from all treated animals on each of Days 1 and 14 of the treatment period at 2, 5, 10, 15, 30, and 60 minutes as well as 3 and 8 hours after treatment.

[2] = system: Sprague-Dawley rats; experiment: Maximum tolerated dose followed by 7-day repeat-dose toxicology in rats (Study 700040); format: in vivo, rat
Method: (§1) The study consisted of 2 parts. […] The doses used in part 1 were 15, 30, 50, 65, and 75 mg/kg. Each subsequent dose was administered following at least 24 hours from the commencement of the previous dose. There were 2 males and 2 females in each dose group.
(§2) During Phase I, assessments of mortality, clinical signs and body weights were performed. […] The necropsy consisted of an external examination, including reference to all clinically-recorded lesions, as well as a detailed internal examination.
(§3) During Phase 2, assessments of mortality, clinical signs and body weights were performed. Following dosing, all animals were euthanized and subjected to a necropsy examination on Day 8. The necropsy consisted of an external examination, including reference to all clinically-recorded lesions, as well as a detailed internal examination. Study plan specific tissues/organs were collected and retained, then trimmed and preserved promptly once the animal was euthanized but these were not further examined microscopically.

[3] = as above; format: in vivo, rat; conditions: both sexes, Sprague-Dawley, rat, in vivo, inhaled or intranasal; single intranasal administration
Method: as §1, §2, §3

With `COc1ccc2[nH]cc(CCN(C)C)c2c1` [5MeODMT, 5-methoxy-N,N-dimethyltryptamine] the Tmax [1] was 3 to 14 min, the half-life ([1]; read-out: apparent elimination half-lives) was 19 to 95 min and the Body weight gain ([2]; 75 mg/kg for 7 consecutive days) was “slightly suppressed for both sexes”. The “Tolerability, 7 consecutive days” value ([2]; 75 mg/kg once daily intranasal) was “tolerated”, the “Tolerability, single intranasal administration” value ([2]; dose levels up to 75 mg/kg) was “tolerated” and the “Mortality and gross pathology” value ([2]; single dose 15, 30, 50, 65, 75 mg/kg) was “no mortality and gross pathology findings at any dose”. For the same compound, the MTD at 14 days [3] was 75 mg/kg.

Source: patent publication US11518742B2 (priority 2020, dated 2022)
